Results reported in publication PMC5874716, “Antimicrobial Peptides for Topical Treatment of Osteomyelitis and Implant-Related Infections: Study in the Spongy Bone” (Pharmaceuticals, 2018).
Structures can show the parent of a compound that is named as a salt. Non-standard residues stand in square brackets, D forms with d. Residues, ends and D or L forms follow the SMILES beside them. No end group written: not given here. βAla = NCCC(=O)O

Tests used:
human erythrocytes = experiment: Haemolysis assay; format: cell-based; settings: concentration causing lysis of 50% of human red blood cells; at least three times in duplicates
Protocol: (§1) MIC values for peptides were established by observing growth of treated bacteria in HONEYCOMB 100-well microtiter plates (Helsinki, Finland) using a Bioscreen C instrument (Oy Growth Curves, Helsinki, Finland) as previously described. Haemolytic activity of peptides expressed as the concentration of a peptide required for lysis of 50% of human erythrocytes in the assay (LC50) was measured using a Tecan infinite M200 PRO reader (Tecan Austria GmbH, Grödig, Austria). Blood samples for determining haemolytic activity were obtained from healthy volunteers.

Candida albicans = format: cell-based; settings: Bioscreen C; at least three times in duplicates
Protocol: (§2) Femur heads (ca. 70 pieces) taken from patients during hip replacement surgery were periodically purchased in the period between 2014–2017 as discarded from the bone tissue bank at University Hospital in Motol, Prague, Czech Republic. The reason for the replacements by artificial prosthesis was the worn out cartilage on the surface of their heads. Bone samples were stored at −80 °C under standard conditions of certified tissue banks. In the laboratory, they were kept at +5 °C overnight and then at room temperature for several hours before they could be used for the experiments. The experiments with this material were approved by the Ethics Committee for Multi-Centric Clinical Trials of the University Hospital Motol, Reference No: EK-655/15. Methicillin-resistant S. aureus (MRSA 6271) ATCC 43300 and P. aeruginosa (5482) ATCC 27853 were purchased from the Czech National Collection of Type Cultures, National Institute of Public Health, Prague, Czech Republic. Methicillin-resistant S. aureus (MRSA (L)) and P. aeruginosa (L) were obtained as multi-resistant clinical isolates from Liberec Regional Hospital, Liberec, Czech Republic. Methicillin-resistant S. aureus (MRSA (M)), E. faecalis and S. epidermidis were obtained as clinical isolates from University Hospital in Motol, Prague. Candida albicans (F7-39/IDE99) came from the mycological collection of the Faculty of Medicine, Palacky University, Olomouc, Czech Republic. C. albicans ATCC MYA-2876, C. tropicalis ATCC 750 and C. glabrata DSY565 were kindly provided by Dr. Hana Sychrová from the Institute of Physiology, Academy of Sciences of the Czech Republic, Prague. Vancomycin hydrochloride, gentamicin sulfate, ceftriaxone disodium salt, amphotericin B, fluconazole, and clotrimazole were obtained from Sigma-Aldrich, Prague, Czech Republic.
as §1

[1] = test system: MRSA clinical isolate from Liberec Regional Hospital (MRSA (L)); experiment: microbe, parasite or virus in culture; format: cell-based; settings: clinical isolate Liberec, Bioscreen C, at least three times in duplicates
Protocol: as §2, §1

[2] = test system: E. faecalis clinical isolate (Motol); experiment: microbe, parasite or virus in culture; format: cell-based; settings: clinical isolate Motol, Bioscreen C, at least three times in duplicates
Protocol: as §2, §1

[3] = test system: P. aeruginosa (5482) ATCC 27853; experiment: microbe, parasite or virus in culture; format: cell-based; settings: Bioscreen C, at least three times in duplicates
Protocol: as §2, §1

[4] = test system: MRSA clinical isolate from University Hospital in Motol (MRSA (M)); experiment: microbe, parasite or virus in culture; format: cell-based; settings: clinical isolate Motol, Bioscreen C, at least three times in duplicates
Protocol: as §2, §1

MRSA 6271 (ATCC 43300) = experiment: microbe, parasite or virus in culture; format: cell-based; settings: growth in 100-well microtiter plates, Bioscreen C, tested at least three times in duplicates
Protocol: as §2, §1

[5] = test system: S. epidermidis clinical isolate (Motol); experiment: microbe, parasite or virus in culture; format: cell-based; settings: clinical isolate Motol, Bioscreen C, at least three times in duplicates
Protocol: as §2, §1

[6] = test system: P. aeruginosa clinical isolate from Liberec Regional Hospital; experiment: microbe, parasite or virus in culture; format: cell-based; settings: clinical isolate Liberec, Bioscreen C, at least three times in duplicates
Protocol: as §2, §1

laboratory rats = settings: infected femurs of laboratory rats treated locally; cited from earlier work
Source text: Another issue might be the toxicity of these peptides when applied locally to the bone tissue of laboratory animals or humans. […] None of these animals died.

Row | Compound | Haemolytic Activity LC50 (human erythrocytes) | Antimicrobial Activity MIC, C. a. (Candida albicans) | Antimicrobial Activity MIC, MRSA a [1] | Antimicrobial Activity MIC, E. f. b [2] | Antimicrobial Activity MIC, P. a. 5482 [3] | Antimicrobial Activity MIC, MRSA b [4] | Antimicrobial Activity MIC, MRSA 6271 (MRSA 6271 (ATCC 43300)) | Antimicrobial Activity MIC, S. e. b [5] | Antimicrobial Activity MIC, P. a. a [6] | animals died (laboratory rats) | signs of local or systemic toxicity (laboratory rats) | MIC ([1]; Staphylococcus aureus, MRSA, read-out: Antimicrobial Activity MIC, MRSA a) | MIC ([2]; Enterococcus faecalis, read-out: Antimicrobial Activity MIC, E. f. b) | MIC ([3]; Pseudomonas aeruginosa, ATCC27853, read-out: Antimicrobial Activity MIC, P. a. 5482) | MIC ([4]; Staphylococcus aureus, MRSA, read-out: Antimicrobial Activity MIC, MRSA b) | MIC (MRSA 6271 (ATCC 43300); Staphylococcus aureus, read-out: Antimicrobial Activity MIC, MRSA 6271) | MIC ([5]; Staphylococcus epidermidis, read-out: Antimicrobial Activity MIC, S. e. b) | MIC ([6]; Pseudomonas aeruginosa, read-out: Antimicrobial Activity MIC, P. a. a)
1 | CC[C@@H](C)[C@@H](NC(=O)[C@@H](CCCCN)NC(=O)[C@@H](CCCCN)NC(=O)[C@@H](CC(C)C)NC(=O)[C@@H](CC(C)C)NC(=O)[C@@H](CCCCN)NC(=O)[C@@H](CCSC)NC(=O)[C@@H](Cc1c[nH]c2ccccc12)NC(=O)[C@@H](CCCCN)NC(=O)CCN)C(=O)N[C@H](CC(C)C)C(=O)N[C@H](CCCCN)C(N)=O [XII] (H-[βAla][dK][dW][dM][dK][dL][dL][dK][dK][dI][dL][dK]-NH2; N-terminus assumed) | >400 µM | 5.3 µM | 8.0 µM | 32.0 µM | 3.2 µM | 16.0 µM | 16.0 µM | 2.5 µM | 8.0 µM | – | – | – | – | – | – | – | – | –
2 | GKWVKLLKKILK-NH2 [VI] | >400 µM | 6.3 µM | 5.0 µM | >100 µM | 3.0 µM | 10.0 µM | 9.0 µM | 2.5 µM | 12.7 µM | – | – | – | – | – | – | – | – | –
3 | KWMKLLKKILK-NH2 [IX] | >400 µM | 9.5 µM | 8.0 µM | >100 µM | 2.9 µM | 17.7 µM | 13.5 µM | 3.2 µM | 5.8 µM | – | – | – | – | – | – | – | – | –
4 | GKWMKLLKKILK-NH2 [I] | 339 µM | 5.7 µM | 3.6 µM | 13.3 µM | 2.8 µM | 5.7 µM | 6.3 µM | 2.3 µM | 10.0 µM | None | did not notice any signs of local or systemic toxicity | – | – | – | – | – | – | –
5 | CC[C@@H](C)[C@@H](NC(=O)[C@@H](CCCCN)NC(=O)[C@@H](CCCCN)NC(=O)[C@@H](CC(C)C)NC(=O)[C@@H](CC(C)C)NC(=O)[C@@H](CCCCN)NC(=O)[C@@H](CCSC)NC(=O)[C@@H](Cc1c[nH]c2ccccc12)NC(=O)[C@H](N)CCCCN)C(=O)N[C@H](CC(C)C)C(=O)N[C@H](CCCCN)C(N)=O [X] (H-[dK][dW][dM][dK][dL][dL][dK][dK][dI][dL][dK]-NH2; N-terminus assumed) | >400 µM | 11.3 µM | 14.0 µM | 36 µM | 4.5 µM | 14.0 µM | 19.3 µM | 3.5 µM | 18.0 µM | – | – | – | – | – | – | – | – | –
6 | CC[C@@H](C)[C@@H](NC(=O)[C@@H](CCCCN)NC(=O)[C@@H](CCCCN)NC(=O)[C@@H](CC(C)C)NC(=O)[C@@H](CC(C)C)NC(=O)[C@@H](CCCCN)NC(=O)[C@H](NC(=O)[C@@H](Cc1c[nH]c2ccccc12)NC(=O)[C@@H](CCCCN)NC(=O)CN)C(C)C)C(=O)N[C@H](CC(C)C)C(=O)N[C@H](CCCCN)C(N)=O [VII] (H-G[dK][dW][dV][dK][dL][dL][dK][dK][dI][dL][dK]-NH2; N-terminus assumed) | >400 µM | 12.5 µM | 15.0 µM | 25.3 µM | 4.5 µM | 22.0 µM | 22.0 µM | 4.2 µM | 25.3 µM | – | – | – | – | – | – | – | – | –
7 | GKWMKMLKKILK-NH2 [IV] | >200 µM | 12.7 µM | 10.0 µM | >100 µM | 5.3 µM | 20.0 µM | 20.0 µM | 3.2 µM | 12.7 µM | – | – | – | – | – | – | – | – | –
8 | GKWLKLLKKILK-NH2 [V] | 196 µM | 16.0 µM | 8.0 µM | 50.7 µM | 4.0 µM | 10.0 µM | 10.0 µM | 2.2 µM | 10.7 µM | – | – | – | – | – | – | – | – | –
9 | CNC(C)C1CCC(N)C(OC2C(N)CC(N)C(OC3OCC(C)(O)C(NC)C3O)C2O)O1 (stereo not drawn) [Gentamicin, gentamicin sulfate, reference compound] | – | – | – | – | – | – | – | – | – | – | – | 3.9 µM | 95.2 µM | 2 µM | 4.5 µM | 325 µM | 109 µM | > 220 µM
10 | GKWKKLLKKILK-NH2 [III] | >400 µM | 9.5 µM | 11.5 µM | >100 µM | 2.9 µM | 25.3 µM | 29.7 µM | 4.7 µM | 9.5 µM | – | – | – | – | – | – | – | – | –
11 | CC[C@@H](C)[C@@H](NC(=O)[C@@H](CCCCN)NC(=O)[C@@H](CCCCN)NC(=O)[C@@H](CC(C)C)NC(=O)[C@@H](CC(C)C)NC(=O)[C@@H](CCCCN)NC(=O)[C@@H](CCSC)NC(=O)[C@@H](Cc1c[nH]c2ccccc12)NC(=O)[C@@H](CCCCN)NC(=O)CN)C(=O)N[C@H](CC(C)C)C(=O)N[C@H](CCCCN)C(N)=O [II] (H-G[dK][dW][dM][dK][dL][dL][dK][dK][dI][dL][dK]-NH2; N-terminus assumed) | >400 µM | 5.7 µM | 5.3 µM | 12.7 µM | 4.5 µM | 9.7 µM | 11.3 µM | 2.0 µM | 12.5 µM | – | – | – | – | – | – | – | – | –
